According to PubChem BioAssay (NCI):
Several values for one entry are separate records, joined by “and”; a condition that tells them apart may be missing. Identical values can stand only once.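 Protocol summary: plate cells (96-well), add compound at 5 concentrations, incubate 48 h, interpolate endpoints linearly. The concentration for 50% growth inhibition is given as GI50. The concentration for full growth arrest is given as TGI.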

Tests used:
Assay in all cases: growth of human tumour cells (NCI), 48 h
[1] = system: T-47D breast
[2] = system: RXF 393 renal
[3] = system: HCC-2998 colon
[4] = system: HS 578T breast
[5] = system: SW-620 colon
[6] = system: M14 melanoma
[7] = system: HOP-62 NSCLC
[8] = system: DU-145 prostate
[9] = system: EKVX NSCLC
[10] = system: RPMI-8226 leukemia
[11] = system: SK-MEL-28 melanoma
[12] = system: MCF7 breast
[13] = system: MDA-MB-231 breast
[14] = system: K-562 leukemia
[15] = system: SK-MEL-5 melanoma
[16] = system: IGROV1 ovarian
[17] = system: TK-10 renal
[18] = system: HCT-116 colon
[19] = system: LOX IMVI melanoma
[20] = system: NCI-H23 lung
[21] = system: A549 NSCLC
[22] = system: NCI-H460 lung
[23] = system: MALME-3M melanoma
[24] = system: HOP-92 NSCLC
[25] = system: MOLT-4 leukemia
[26] = system: KM12 colon
[27] = system: OVCAR-5 ovarian
[28] = system: NCI/ADR-RES ovarian
[29] = system: CCRF-CEM leukemia
[30] = system: SNB-19 CNS
[31] = system: UACC-257 melanoma
[32] = system: CAKI-1 renal
[33] = system: HCT-15 colon
[34] = system: UACC-62 melanoma
[35] = system: NCI-H226 lung
[36] = system: SF-539 CNS
[37] = system: 786-0 renal
[38] = system: OVCAR-8 ovarian
[39] = system: SNB-75 CNS
[40] = system: SF-268 CNS
[41] = system: U251 CNS
[42] = system: SK-OV-3 ovarian
[43] = system: SN12C renal
[44] = system: PC-3 prostate
[45] = system: OVCAR-4 ovarian
[46] = system: SR leukemia
[47] = system: ACHN renal
[48] = system: SF-295 CNS
[49] = system: UO-31 renal

## COc1cc(C)c(-c2ccc(OC)c(=O)cc2C)c(OC)c1OC
[1]
  TGI: > 100 µM
[2]
  TGI: > 100 µM
[3]
  TGI: > 100 µM
[4]
  GI50: > 100 µM
  TGI: > 100 µM
[5]
  TGI: > 100 µM
[6]
  TGI: > 100 µM
[7]
  TGI: > 100 µM
[8]
  TGI: > 100 µM
[9]
  TGI: > 100 µM
[10]
  TGI: > 100 µM
[11]
  GI50: > 100 µM
  TGI: > 100 µM
[12]
  TGI: > 100 µM
[13]
  TGI: > 100 µM
[14]
  TGI: > 100 µM
[15]
  TGI: 38.3 µM and > 100 µM
[16]
  TGI: > 100 µM
[17]
  GI50: 66.3 µM and > 100 µM
  TGI: > 100 µM
[18]
  TGI: > 100 µM
[19]
  TGI: > 100 µM
[20]
  TGI: > 100 µM
[21]
  TGI: > 100 µM
[22]
  TGI: > 100 µM
[23]
  GI50: > 100 µM
  TGI: > 100 µM
[24]
  GI50: 3.53 µM and 22.4 µM
  TGI: > 100 µM
[25]
  TGI: > 100 µM
[26]
  TGI: > 100 µM
[27]
  TGI: > 100 µM
[28]
  GI50: > 100 µM
  TGI: > 100 µM
[29]
  TGI: > 100 µM
[30]
  TGI: > 100 µM
[31]
  TGI: > 100 µM
[32]
  TGI: > 100 µM
[33]
  TGI: > 100 µM
[34]
  TGI: > 100 µM
[35]
  TGI: > 100 µM
[36]
  TGI: > 100 µM
[37]
  TGI: > 100 µM
[38]
  TGI: > 100 µM
[39]
  GI50: > 100 µM
  TGI: > 100 µM
[40]
  TGI: > 100 µM
[41]
  TGI: > 100 µM
[42]
  TGI: > 100 µM
[43]
  TGI: > 100 µM
[44]
  TGI: > 100 µM
[45]
  GI50: 44.2 µM and > 100 µM
  TGI: > 100 µM
[46]
  TGI: > 100 µM
[47]
  TGI: > 100 µM
[48]
  TGI: > 100 µM
[49]
  TGI: > 100 µM
